Reference: the supplement of paper PMC8612539
In brackets after ≈: the same amount, converted by molar mass.

Tests used:
[1] = system: Pasteurella multocida; assay: minimum inhibitory concentration (MIC)
Description: (§1)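 Broth microdilution MIC (Sensititre BOPO7F bovine plate, CLSI methods) of 19 antimicrobials against field isolates of P. multocida, M. haemolytica, H. somni (deep nasopharyngeal swabs) and E. coli, Enterococcus spp. (rectal swabs) from weaned dairy heifers. Incubation 16-24 h at 35 C. MIC is the lowest concentration preventing visible growth. Values with <= or > lie at the tested range limits. Trimethoprim-sulfamethoxazole is given as the trimethoprim component of a 1:19 mixture.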

[2] = system: Enterococcus spp.; assay: minimum inhibitory concentration (MIC)
Description: as §1

CC1(C)S[C@@H]2[C@H](NC(=O)Cc3ccccc3)C(=O)N2[C@H]1C(=O)O [Penicillin]
minimum inhibitory concentration [µg/mL]
Details	[1]	[2]
isolate (source animal id): 2	–	≤ 0.12
isolate (source animal id): 10	0.25 (≈ 0.748 µM)	–
isolate (source animal id): 11	0.25 (≈ 0.748 µM)	–
isolate (source animal id): 12	0.25 (≈ 0.748 µM)	–
isolate (source animal id): 19	0.25 (≈ 0.748 µM)	–
isolate (source animal id): 23	≤ 0.12	–
isolate (source animal id): 26	0.25 (≈ 0.748 µM)	–
isolate (source animal id): 35	–	2 (≈ 5.98 µM)
isolate (source animal id): 42	–	2 (≈ 5.98 µM)
isolate (source animal id): 44	–	2 (≈ 5.98 µM)
isolate (source animal id): 79	–	2 (≈ 5.98 µM)
isolate (source animal id): 88	–	≤ 0.12
isolate (source animal id): 91	–	≤ 0.12
isolate (source animal id): 92	–	0.5 (≈ 1.5 µM)
isolate (source animal id): 98	≤ 0.12	–
isolate (source animal id): 104	≤ 0.12	–
isolate (source animal id): 111	–	≤ 0.12
isolate (source animal id): 115	≤ 0.12	–
isolate (source animal id): 117	0.25 (≈ 0.748 µM)	–
isolate (source animal id): 118	≤ 0.12	–
isolate (source animal id): 121	0.25 (≈ 0.748 µM)	–
isolate (source animal id): 122	–	2 (≈ 5.98 µM)
isolate (source animal id): 123	–	1 (≈ 2.99 µM)
isolate (source animal id): 124	0.25 (≈ 0.748 µM)	–
isolate (source animal id): 125	0.25 (≈ 0.748 µM)	–
isolate (source animal id): 128	≤ 0.12	–
isolate (source animal id): 131	0.25 (≈ 0.748 µM)	–
isolate (source animal id): 133	–	1 (≈ 2.99 µM)
isolate (source animal id): 135	0.25 (≈ 0.748 µM)	–
isolate (source animal id): 136	0.25 (≈ 0.748 µM)	–
isolate (source animal id): 140	0.25 (≈ 0.748 µM)	–
isolate (source animal id): 144	≤ 0.12	–
isolate (source animal id): 146	≤ 0.12	–
isolate (source animal id): 150	≤ 0.12	–
isolate (source animal id): 151	≤ 0.12	–
isolate (source animal id): 153	≤ 0.12	–
isolate (source animal id): 155	0.25 (≈ 0.748 µM)	–
isolate (source animal id): 157	≤ 0.12	–
isolate (source animal id): 158	–	2 (≈ 5.98 µM)
isolate (source animal id): 160	≤ 0.12	–
isolate (source animal id): 164	≤ 0.12	–
isolate (source animal id): 165	≤ 0.12	–
isolate (source animal id): 167	≤ 0.12	–
isolate (source animal id): 168	0.25 (≈ 0.748 µM)	4 (≈ 12 µM)
isolate (source animal id): 169	≤ 0.12	4 (≈ 12 µM)
isolate (source animal id): 170	> 8	–
isolate (source animal id): 171	≤ 0.12	1 (≈ 2.99 µM)
isolate (source animal id): 172	≤ 0.12	–
isolate (source animal id): 173	0.25 (≈ 0.748 µM)	–
isolate (source animal id): 174	≤ 0.12	–
isolate (source animal id): 175	≤ 0.12	4 (≈ 12 µM)
isolate (source animal id): 176	≤ 0.12	–
isolate (source animal id): 177	≤ 0.12	2 (≈ 5.98 µM)
isolate (source animal id): 178	≤ 0.12	–
isolate (source animal id): 179	≤ 0.12	–
isolate (source animal id): 181	–	4 (≈ 12 µM)
isolate (source animal id): 182	≤ 0.12	4 (≈ 12 µM)
isolate (source animal id): 183	–	2 (≈ 5.98 µM)
isolate (source animal id): 187	–	4 (≈ 12 µM)
isolate (source animal id): 190	–	4 (≈ 12 µM)
isolate (source animal id): 192	≤ 0.12	–
isolate (source animal id): 193	≤ 0.12	–
isolate (source animal id): 194	–	1 (≈ 2.99 µM)
isolate (source animal id): 195	≤ 0.12	4 (≈ 12 µM)
isolate (source animal id): 196	≤ 0.12	–
isolate (source animal id): 197	≤ 0.12	0.5 (≈ 1.5 µM)
isolate (source animal id): 198	0.25 (≈ 0.748 µM)	–
isolate (source animal id): 199	≤ 0.12	–
isolate (source animal id): 200	≤ 0.12	–
isolate (source animal id): 201	≤ 0.12	–
isolate (source animal id): 203	≤ 0.12	–
isolate (source animal id): 204	≤ 0.12	–
isolate (source animal id): 205	0.25 (≈ 0.748 µM)	–
isolate (source animal id): 206	≤ 0.12	–
isolate (source animal id): 207	≤ 0.12	–
isolate (source animal id): 208	≤ 0.12	–
isolate (source animal id): 209	≤ 0.12	–
isolate (source animal id): 210	0.25 (≈ 0.748 µM)	–
isolate (source animal id): 211	–	4 (≈ 12 µM)
isolate (source animal id): 213	≤ 0.12	–
isolate (source animal id): 214	–	2 (≈ 5.98 µM)
isolate (source animal id): 216	≤ 0.12	–
isolate (source animal id): 222	–	1 (≈ 2.99 µM)
isolate (source animal id): 223	0.25 (≈ 0.748 µM)	1 (≈ 2.99 µM)
isolate (source animal id): 227	≤ 0.12	–
isolate (source animal id): 228	–	2 (≈ 5.98 µM)
isolate (source animal id): 229	≤ 0.12	–
isolate (source animal id): 230	–	8 (≈ 23.9 µM)
isolate (source animal id): 233	≤ 0.12	–
isolate (source animal id): 234	≤ 0.12	–
isolate (source animal id): 235	–	2 (≈ 5.98 µM)
isolate (source animal id): 236	–	2 (≈ 5.98 µM)
isolate (source animal id): 237	≤ 0.12	–
isolate (source animal id): 239	–	1 (≈ 2.99 µM)
isolate (source animal id): 241	≤ 0.12	4 (≈ 12 µM)
isolate (source animal id): 244	–	1 (≈ 2.99 µM)
isolate (source animal id): 245	≤ 0.12	–
isolate (source animal id): 246	–	1 (≈ 2.99 µM)
isolate (source animal id): 247	≤ 0.12	8 (≈ 23.9 µM)
isolate (source animal id): 250	≤ 0.12	1 (≈ 2.99 µM)
isolate (source animal id): 252	–	2 (≈ 5.98 µM)
isolate (source animal id): 254	0.25 (≈ 0.748 µM)	–
isolate (source animal id): 255	≤ 0.12	–
isolate (source animal id): 258	≤ 0.12	–
isolate (source animal id): 261	≤ 0.12	–
isolate (source animal id): 262	≤ 0.12	–
isolate (source animal id): 268	–	≤ 0.12
isolate (source animal id): 269	≤ 0.12	–
isolate (source animal id): 270	≤ 0.12	–
isolate (source animal id): 274	≤ 0.12	–
isolate (source animal id): 275	0.25 (≈ 0.748 µM)	–
isolate (source animal id): 276	0.25 (≈ 0.748 µM)	–
isolate (source animal id): 277	≤ 0.12	–
isolate (source animal id): 278	≤ 0.12	–
isolate (source animal id): 279	0.25 (≈ 0.748 µM)	–
isolate (source animal id): 280	0.25 (≈ 0.748 µM)	–
isolate (source animal id): 282	–	2 (≈ 5.98 µM)
isolate (source animal id): 284	0.25 (≈ 0.748 µM)	–
isolate (source animal id): 285	0.25 (≈ 0.748 µM)	2 (≈ 5.98 µM)
isolate (source animal id): 287	0.25 (≈ 0.748 µM)	–
isolate (source animal id): 289	–	0.5 (≈ 1.5 µM)
isolate (source animal id): 290	0.25 (≈ 0.748 µM)	0.25 (≈ 0.748 µM)
isolate (source animal id): 294	0.25 (≈ 0.748 µM)	–
isolate (source animal id): 295	0.25 (≈ 0.748 µM)	–
isolate (source animal id): 296	≤ 0.12	0.5 (≈ 1.5 µM)
isolate (source animal id): 298	–	≤ 0.12
isolate (source animal id): 301	–	≤ 0.12
isolate (source animal id): 307	0.25 (≈ 0.748 µM)	–
isolate (source animal id): 310	0.25 (≈ 0.748 µM)	4 (≈ 12 µM)
isolate (source animal id): 311	0.25 (≈ 0.748 µM)	–
isolate (source animal id): 312	≤ 0.12	–
isolate (source animal id): 313	0.25 (≈ 0.748 µM)	–
isolate (source animal id): 315	0.25 (≈ 0.748 µM)	–
isolate (source animal id): 316	0.25 (≈ 0.748 µM)	–
isolate (source animal id): 320	–	0.5 (≈ 1.5 µM)
isolate (source animal id): 331	–	≤ 0.12
isolate (source animal id): 333	–	0.25 (≈ 0.748 µM)
isolate (source animal id): 341	–	2 (≈ 5.98 µM)
